Laboratory results from PubChem BioAssay AID1259407 (Chemical Carcinogenesis Research Information System (CCRIS), 2018).
Activity calls are given as the source filed them. No rule for the calls is given here.

Test system: CCRIS mutagenicity, Ames/micronucleus/aberration tests
Assay: CCRIS mutagenicity studies
[1] = Test System: AMES SALMONELLA TYPHIMURIUM, Strain/Indicator: TA98, Metabolic Activation: NONE, Method: STANDARD PLATE
[2] = Test System: AMES SALMONELLA TYPHIMURIUM, Strain/Indicator: TA98, Metabolic Activation: RAT, LIVER, S-9, AROCLOR 1254, Method: STANDARD PLATE
[3] = Test System: AMES SALMONELLA TYPHIMURIUM, Strain/Indicator: TA100, Metabolic Activation: NONE, Method: STANDARD PLATE
[4] = Test System: AMES SALMONELLA TYPHIMURIUM, Strain/Indicator: TA100, Metabolic Activation: RAT, LIVER, S-9, AROCLOR 1254, Method: STANDARD PLATE
[5] = Test System: AMES SALMONELLA TYPHIMURIUM, Strain/Indicator: TA1535, Metabolic Activation: NONE, Method: STANDARD PLATE
[6] = Test System: AMES SALMONELLA TYPHIMURIUM, Strain/Indicator: TA1535, Metabolic Activation: RAT, LIVER, S-9, AROCLOR 1254, Method: STANDARD PLATE
[7] = Test System: AMES SALMONELLA TYPHIMURIUM, Strain/Indicator: TA1537, Metabolic Activation: NONE, Method: STANDARD PLATE
[8] = Test System: AMES SALMONELLA TYPHIMURIUM, Strain/Indicator: TA1537, Metabolic Activation: RAT, LIVER, S-9, AROCLOR 1254, Method: STANDARD PLATE
[9] = Test System: AMES SALMONELLA TYPHIMURIUM, Strain/Indicator: TA1538, Metabolic Activation: NONE, Method: STANDARD PLATE
[10] = Test System: AMES SALMONELLA TYPHIMURIUM, Strain/Indicator: TA1538, Metabolic Activation: RAT, LIVER, S-9, AROCLOR 1254, Method: STANDARD PLATE

Q: Which results are given for `O=[N+]([O-])C1=Cc2cc3cc4ccccc4cc3c3cccc1c23`?
A: mutagenic call [1]: active; positive; mutagenic call [2]: active; positive; mutagenic call [3]: inactive; negative; mutagenic call [4]: inactive; negative; mutagenic call [5]: inactive; negative; mutagenic call [6]: inactive; negative; mutagenic call [7]: active; positive; mutagenic call [8]: active; positive; mutagenic call [9]: active; positive; mutagenic call [10]: inactive; negative

Q: Which results are given for `O=C(O)/C(Cl)=C(/C(=O)O)C(Cl)Cl`?
A: mutagenic call (Test System: AMES SALMONELLA TYPHIMURIUM, Strain/Indicator: TA97, Metabolic Activation: NONE, Method: STANDARD PLATE): inactive; negative; mutagenic call (Test System: AMES SALMONELLA TYPHIMURIUM, Strain/Indicator: TA97, Metabolic Activation: RAT, LIVER, S-9, PHENOBARBITAL, Method: STANDARD PLATE): inactive; negative; mutagenic call [1]: inactive; negative; mutagenic call [2]: inactive; negative; mutagenic call (Test System: AMES SALMONELLA TYPHIMURIUM, Strain/Indicator: TA98, Metabolic Activation: RAT, LIVER, S-9, PHENOBARBITAL, Method: STANDARD PLATE): inactive; negative; mutagenic call [4]: inactive; negative; mutagenic call (Test System: AMES SALMONELLA TYPHIMURIUM, Strain/Indicator: TA100, Metabolic Activation: RAT, LIVER, S-9, PHENOBARBITAL, Method: STANDARD PLATE): inactive; negative; mutagenic call (Test System: AMES SALMONELLA TYPHIMURIUM, Strain/Indicator: TA102, Metabolic Activation: NONE, Method: STANDARD PLATE): inactive; negative; mutagenic call (Test System: AMES SALMONELLA TYPHIMURIUM, Strain/Indicator: TA102, Metabolic Activation: RAT, LIVER, S-9, AROCLOR 1254, Method: STANDARD PLATE): inactive; negative

Q: Which mutagenic call [3] does the source give for `O=c1c2c(c3ccc4[nH]cccc4c3c1O)O2` here?
A: inactive; negative

Q: Which mutagenic call (End Point: IN VITRO CHROMOSOMAL ABERRATIONS, Test System: CHINESE HAMSTER OVARY CELLS, Metabolic Activation: NONE) does the source give for `CCCCOCCOCCOCc1cc2c(cc1CCC)OCO2` here?
A: inactive; negative; precipitation occurred at 287 ug/ml

Q: What about the mutagenic call (End Point: IN VITRO CHROMOSOMAL ABERRATIONS, Test System: CHINESE HAMSTER OVARY CELLS, Metabolic Activation: RAT, LIVER, S-9, AROCLOR 1254) of the same molecule?
A: inactive; negative; precipitation occurred at 496 ug/ml

Q: And the mutagenic call (Test System: AMES SALMONELLA TYPHIMURIUM, Strain/Indicator: TA97, Metabolic Activation: NONE, Method: PREINCUBATION)?
A: inactive; negative

Q: And the mutagenic call (Test System: AMES SALMONELLA TYPHIMURIUM, Strain/Indicator: TA97, Metabolic Activation: RAT, LIVER, S-9, AROCLOR 1254, Method: PREINCUBATION)?
A: inactive; negative

Q: And the mutagenic call [1]?
A: inactive; negative

Q: And the mutagenic call [2]?
A: inactive; negative

Q: And the mutagenic call [3]?
A: inactive; negative

Q: And the mutagenic call [4]?
A: inactive; negative

Q: What about the mutagenic call (Test System: AMES SALMONELLA TYPHIMURIUM, Strain/Indicator: TA102, Metabolic Activation: NONE, Method: PREINCUBATION) of the same molecule?
A: inactive; negative

Q: And the mutagenic call (Test System: AMES SALMONELLA TYPHIMURIUM, Strain/Indicator: TA102, Metabolic Activation: RAT, LIVER, S-9, AROCLOR 1254, Method: PREINCUBATION)?
A: inactive; negative

Q: What about the mutagenic call [5] of the same molecule?
A: inactive; negative

Q: And the mutagenic call [6]?
A: inactive; negative

Q: What about the mutagenic call [7] of the same molecule?
A: inactive; negative

Q: And the mutagenic call [8]?
A: inactive; negative

Q: What about the mutagenic call [9] of the same molecule?
A: inactive; negative

Q: And the mutagenic call [10]?
A: inactive; negative

Q: And the mutagenic call (Test System: CHINESE HAMSTER OVARY, Strain/Indicator: CHO-K1-BH4 (HGPRT)/6-THIOGUANINE, Metabolic Activation: NONE)?
A: inactive; negative

Q: And the mutagenic call (Test System: CHINESE HAMSTER OVARY, Strain/Indicator: CHO-K1-BH4 (HGPRT)/6-THIOGUANINE, Metabolic Activation: RAT, LIVER, S-9, AROCLOR 1254)?
A: inactive; negative

Q: And the mutagenic call (Test System: UDS HUMAN HEPATOCYTES, Strain/Indicator: THY INCORP, Metabolic Activation: NONE, Method: AUTORADIOGRAPHY)?
A: inactive; negative

Q: What about the mutagenic call (Test System: UDS RAT HEPATOCYTES, Strain/Indicator: THY INCORP, Metabolic Activation: NONE, Method: AUTORADIOGRAPHY) of the same molecule?
A: inactive; negative
